PubChem BioAssay (NCI)
≈ marks a conversion by molar mass, not a printed value.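 Following 48 hours of exposure in 96-well plates, responses at five concentrations were used to interpolate endpoints linearly. GI50: concentration for 50% inhibition of growth. Definition used: TGI = concentration required for complete inhibition of growth.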

Columns and labels:
Assay in all cases: growth of human tumour cells (NCI), 48 h
[1] = tested on: HCC-2998 colon
[2] = tested on: LOX IMVI melanoma
[3] = tested on: NCI/ADR-RES ovarian
[4] = tested on: OVCAR-4 ovarian
[5] = tested on: RXF 393 renal
[6] = tested on: SF-268 CNS
[7] = tested on: SK-OV-3 ovarian
[8] = tested on: SNB-19 CNS
[9] = tested on: SNB-75 CNS
[10] = tested on: SW-620 colon

Row | SMILES | TGI [1] | TGI [2] | TGI [3] | TGI [4] | TGI [5] | TGI [6] | TGI [7] | TGI [8] | TGI [9] | TGI [10] | GI50 [1] [µg/mL] | GI50 [2] [µg/mL] | GI50 [3] [µg/mL] | GI50 [4] [µg/mL] | GI50 [5] [µg/mL] | GI50 [6] [µg/mL] | GI50 [7] [µg/mL] | GI50 [8] [µg/mL] | GI50 [9] [µg/mL] | GI50 [10]
1 | Cc1ccc2nc(-c3ccc(NC(=O)c4ccc(N)cc4)c(S(=O)(=O)O)c3)sc2c1 | > 100 µM | > 100 µM | > 100 µM | > 100 µM | > 100 µM | > 100 µM | > 100 µM | > 100 µM | > 100 µM | > 100 µM |  |  |  |  |  |  |  |  |  | 
2 | CC1=CC(O)C(C(O)(C(F)(F)F)C(F)(F)F)C(C)(C)C1 (centres undefined) | > 10 µM | > 10 µM | > 10 µM | > 10 µM | > 10 µM | > 10 µM | > 10 µM | > 10 µM | > 10 µM | > 10 µM |  |  |  |  |  |  |  |  |  | 
3 | OCCCSCCO | > 100 µM | > 100 µM | > 100 µM | > 100 µM |  | > 100 µM | > 100 µM | > 100 µM | > 100 µM | > 100 µM |  |  |  |  |  |  |  |  |  | 
4 | Nc1cc(S(=O)(=O)O)cc2ccc(S(=O)(=O)O)cc12 | > 100 µM | > 100 µM | > 100 µM | > 100 µM | > 100 µM | > 100 µM | > 100 µM | > 100 µM | > 100 µM | > 100 µM |  |  |  |  |  |  |  |  |  | 
5 | Nc1nnc(CCC(=O)Nc2cc(Cl)ccc2Cl)n1N | > 100 µM | > 100 µM |  | > 100 µM | > 100 µM | > 100 µM | > 100 µM | > 100 µM | > 100 µM | > 100 µM |  |  |  |  |  |  |  |  |  | 
6 | CS(C)(=O)=Nn1c(=O)n2n(c1=O)C1c3ccccc3C2c2ccccc21 |  | > 100 µM | > 100 µM |  | > 100 µM |  | > 100 µM | > 100 µM |  | > 100 µM |  |  |  |  |  |  |  |  |  | 
7 | Cc1n[n+]([O-])c(C)cc1[N+](=O)[O-] | 25 µM | 57.9 µM | 42.1 µM | 33.5 µM | 66.3 µM | > 100 µM | > 100 µM | > 100 µM | 54 µM | 28.2 µM |  |  |  |  |  |  |  |  |  | 
8 | CC1C(=O)c2cc3c(cc2CCN(C)Cc2c1ccc1c2OCO1)OCO3 (centres undefined) | 33.5 µg/mL | > 75 µg/mL | > 75 µg/mL | > 75 µg/mL | 68.3 µg/mL | > 75 µg/mL | > 75 µg/mL | > 75 µg/mL | > 75 µg/mL | > 75 µg/mL | 14.1 (≈ 38.5 µM) | 18.6 (≈ 50.7 µM) | 58.3 (≈ 159 µM) | 44.4 (≈ 121 µM) | 13.1 (≈ 35.5 µM) | > 75 | > 75 | > 75 | > 75 | > 75 µg/mL
9 | COc1cccc(/C=N/[N-]C(N)=O)c1[O-].[Ni+2].[OH3+] | 1.02 µM | 2.15 µM |  | 1.01 µM | 0.8 µM | 0.945 µM | 1.69 µM | 1.99 µM | 1.57 µM | 0.371 µM |  |  |  |  |  |  |  |  |  | 0.135 µM
